A short description of series [1]: Antioxidant activity assessed as DPPH free radical scavenging activity at 80 uM after 30 mins relative to control. The series is classed as functional. A general note: DPPH is a stable violet radical that fades when it is reduced.
Series [2] can be described thus: Antioxidant activity assessed as ABTS radical scavenging activity at 80 uM after 10 mins relative to control. The series is classed as functional.
Series [3] can be described thus: Reducing power of the compound assessed as reducing Fe3+ power at 80 uM using K3Fe(CN)6 in pH 6.6 phosphate buffer relative to control.
The next series has as its target T1, Tyrosinase (Agaricus bisporus, UniProt O42713).
T1 sequence (O42713 whole entry): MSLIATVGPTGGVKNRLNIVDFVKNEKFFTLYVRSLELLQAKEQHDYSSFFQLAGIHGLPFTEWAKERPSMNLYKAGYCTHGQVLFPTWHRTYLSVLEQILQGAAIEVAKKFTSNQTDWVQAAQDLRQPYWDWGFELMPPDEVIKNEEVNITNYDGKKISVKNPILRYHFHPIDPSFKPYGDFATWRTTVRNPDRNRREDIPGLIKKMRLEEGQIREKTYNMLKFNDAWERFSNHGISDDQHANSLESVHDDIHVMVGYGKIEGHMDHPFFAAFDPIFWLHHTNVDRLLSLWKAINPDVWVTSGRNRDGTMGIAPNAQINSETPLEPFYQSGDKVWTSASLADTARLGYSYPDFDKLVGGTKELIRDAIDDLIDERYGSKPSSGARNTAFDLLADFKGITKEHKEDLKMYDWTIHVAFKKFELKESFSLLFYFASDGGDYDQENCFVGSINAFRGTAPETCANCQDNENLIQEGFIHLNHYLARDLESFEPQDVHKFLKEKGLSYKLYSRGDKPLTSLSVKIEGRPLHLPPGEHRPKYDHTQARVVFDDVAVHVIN
As to the kind of experiment: Inhibition of mushroom tyrosinase using L-dopa as substrate assessed as reduction in dopachrome production after 20 mins by spectrophotometry.

Series [4] in a line: Hemolytic activity against human erythrocytes assessed as amount of hemoglobin released from lysed cells up to 150 uM relative to control. The series is classed as ADME, cell-based, Erythrocyte. To be noted: read-out: Activity.
Series [5] concerns LAD2. Put plainly: Proinflammatory activity in human LAD2 cells assessed as increase in mast-cell degranulation by measuring beta-hexosaminidase release at 0.125 mM preincubated for 30 mins followed 4-nitrophenyl-N-acetyl-beta-D-glucosaminide substrate addition and measured after 90 mins by fluorescence-based microplate reader analysis relative to control. To be noted: lad2, 1.5 h, 125 µM. The format is ADME.

Series [6] concerns LAD2. Put plainly: Proinflammatory activity in human LAD2 cells assessed as increase in mast-cell degranulation by measuring beta-hexosaminidase release at 0.5 mM preincubated for 30 mins followed 4-nitrophenyl-N-acetyl-beta-D-glucosaminide substrate addition and measured after 90 mins by fluorescence-based microplate reader analysis relative to control. The format is ADME. The following applies: lad2, 1.5 h, 500 µM.

The subject of series [7] is LAD2. As to the kind of experiment: Proinflammatory activity in human LAD2 cells assessed as increase in mast-cell degranulation by measuring beta-hexosaminidase release at 2 mM preincubated for 30 mins followed 4-nitrophenyl-N-acetyl-beta-D-glucosaminide substrate addition and measured after 90 mins by fluorescence-based microplate reader analysis relative to control. The series is classed as ADME. The following applies: lad2, 1.5 h, 2000 µM.

The target in series [8] is T2, Tyrosinase (Mus musculus) (UniProt P11344).
T2 sequence (whole entry): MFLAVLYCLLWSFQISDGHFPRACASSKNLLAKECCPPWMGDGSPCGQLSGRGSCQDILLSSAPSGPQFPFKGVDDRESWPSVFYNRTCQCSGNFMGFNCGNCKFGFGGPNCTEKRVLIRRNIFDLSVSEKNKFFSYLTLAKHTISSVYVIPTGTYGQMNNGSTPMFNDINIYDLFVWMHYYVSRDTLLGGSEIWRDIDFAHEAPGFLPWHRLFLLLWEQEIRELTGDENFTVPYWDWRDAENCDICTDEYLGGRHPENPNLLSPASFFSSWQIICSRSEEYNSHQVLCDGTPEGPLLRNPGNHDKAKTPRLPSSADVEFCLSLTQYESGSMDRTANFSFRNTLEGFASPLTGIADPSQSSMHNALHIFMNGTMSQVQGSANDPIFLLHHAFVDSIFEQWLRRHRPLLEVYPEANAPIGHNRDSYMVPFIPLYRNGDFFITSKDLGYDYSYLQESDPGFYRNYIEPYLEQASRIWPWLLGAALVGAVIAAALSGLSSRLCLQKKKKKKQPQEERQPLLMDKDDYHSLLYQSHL
Put plainly: Inhibition of TYR activity in mouse B16 cells assessed as increase in whitening at 20 uM preincubated for 72 hrs followed L-dopa substrate addition and measured after 4 hrs by fluorescence microscopy. The series is classed as cell-based.

The target in series [9] is T2, Tyrosinase (Mus musculus). Put plainly: Inhibition of TYR activity in mouse B16 cells assessed as effect on pallet after exfoliation at 20 uM preincubated for 72 hrs followed L-dopa substrate addition and measured after 4 hrs by fluorescence microscopy. The series is classed as cell-based.
Series [10] deals with MAP kinase p38 (Mus musculus) (UniProt P47811+O08911+Q9WUI1+Q9Z1B7). As to the kind of experiment: Effect on p38 phosphorylation in mouse B16 cells up to 80 uM after 72 hrs by Western blot analysis. The format is cell-based. (A western blot detects proteins with antibodies after separation by electrophoresis.)
For the next series, the species on record is Mus musculus. As to the kind of experiment: Effect on ERK phosphorylation in mouse B16 cells up to 80 uM after 72 hrs by Western blot analysis. The series is classed as cell-based.
Series [11] has as its system Cavia porcellus. Put plainly: Anti-melanogenic activity in UVB-induced pigmentation Dunkin-Hartley guinea pig model assessed as inhibition of UV-induced melanin production administered topically using PG solvent 6 hrs before UV radiation every day for 2 weeks by Fontana-Masson-staining based assay. The series is classed as functional, organism-based.
Series [12] can be described thus: Toxicity in Dunkin-Hartley guinea pig model of UVB-induced pigmentation assessed as abnormal morphological changes in epidermis at 1 mM to 2 mM administered topically 6 hrs before UV radiation every day for 2 weeks by Fontana-Masson-staining based assay. Set-up: species or system Cavia porcellus. To be noted: in vivo, topical_or_ocular, 1000 µM.
Series [13] can be described thus: Toxicity in Dunkin-Hartley guinea pig model of UVB-induced pigmentation assessed as abnormal morphological changes in dermis at 1 mM to 2 mM administered topically 6 hrs before UV radiation every day for 2 weeks by Fontana-Masson-staining based assay. The following applies: in vivo, topical_or_ocular, 1000 µM. The series is classed as tissue-based, Cavia porcellus.

Series [14] in a line: Drug uptake in skin basal layer of brown guinea pig at 2 mM dosed topically after 1 hr using FITC-labelled compound by H and E staining-based fluorescence microscopy. The series is classed as ADME, organism-based, Cavia porcellus. To be noted: in vivo, topical_or_ocular, 2000 µM.
In series [15] the target is T2, Tyrosinase (Mus musculus). Put plainly: Inhibition of TYR activity in mouse B16 cells assessed as reduction in melanin levels at 20 uM after 24 hrs by spectrophotometric analysis relative to control. The format is cell-based.
The target in series [16] is T3, Tyrosinase (Agaricus bisporus) (UniProt O42713).
T3 sequence (whole entry): T1 sequence (O42713 whole entry)
Put plainly: Potency index, ratio of IC50 for arbutin to IC50 for test compound for inhibition of mushroom tyrosinase using L-dopa as substrate assessed as reduction in dopachrome production after 20 mins by spectrophotometry.

The target in series [17] is T3, Tyrosinase (Agaricus bisporus). Put plainly: Inhibition of mushroom tyrosinase using L-dopa as substrate assessed as reduction in L-dopa oxidation at IC50 by spectrophotometry.
The subject of series [18] is Cavia porcellus. Put plainly: Anti-melanogenic activity in UVB-induced pigmentation Dunkin-Hartley guinea pig model assessed as inhibition of UV-induced melanin production in epidermis basal layer at 1 to 2 mM administered topically using CP hydrogel 6 hrs before UV radiation every day for 2 weeks by Fontana-Masson-staining based assay. The format is functional, organism-based.

Series [19] deals with Cavia porcellus. Put plainly: Protection against UVB-induced pigmentation in Dunkin-Hartley guinea pig assessed as increase in whitening at 1 to 2 mM using CP hydrogel administered topically post UV radiation for 5 days/week for two consecutive weeks for a total 10 days by Fontana-Masson-staining based assay. The format is functional, organism-based.

The source made the active and inactive calls. The rule behind the calls is not given here. Where a SMILES comes first, the peptide text is derived from it.

One may read the IC50 as the point on the concentration scale where inhibition reaches its midpoint. As to `CC(C)[C@H](NC(=O)[C@H](CCCNC(=N)N)NC(=O)[C@H](Cc1ccccc1)NC(=O)[C@H](CS)NC(=O)[C@H](CCCNC(=N)N)NC(=O)[C@@H](N)[C@@H](C)O)C(=O)N[C@@H](CS)C(=O)N[C@@H](CO)C(=O)O` (H-TRCFRVCS-OH), the Activity in [1] turned out to be 97%; in [2], 63%; in series [3], 0.31; with LAD2 [5], 3.87%; with LAD2 [6], 7.15%; in the series on LAD2 [7] it was 10.51%. The results for the Activity result (in the series on Cavia porcellus [11]; in [12]; in [13]) were “Dose-dependent effect”, “Non-Toxic” and “Non-Toxic”, respectively. In addition, the IC50 at Tyrosinase was found to be 53 µM. Also, the hemolysis in [4] was found to be 1%. The inhibition result in series [8], in [15] and in [17] was “Active” throughout. In addition, the outcome (in series [9]; in the series with Cavia porcellus [18]; with Cavia porcellus [19]) was Active. The result (in series [10]; in the series listed under Mus musculus) was inactive. Also, in [14], the Drug uptake entry was “Active”. Further, in [16], the Ratio IC50 is 10.
